Test results as given in patent US11697648B2, “Fused pyrimidine pyridinone compounds as JAK inhibitors” (THERAVANCE BIOPHARMA R&D IP, LLC, priority 2019, dated 2023).

What was measured:
JAK1 = JAK1 (Homo sapiens (Human), UniProt P23458); test: Biochemical JAK1 kinase assay (LanthaScreen)
How it was run: (§1)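 GST-JAK + GFP-STAT1 peptide, HEPES pH 7.5/MgCl2/EGTA/Brij-35 buffer; cpd preincubation 1 h RT; ATP start, 1 h RT; stop with 10 mM EDTA + 2 nM Tb-anti-pSTAT1; TR-FRET 520/495. 4-parameter IC50 → pKi (Cheng-Prusoff).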

JAK2 = JAK2 (Homo sapiens (Human), UniProt O60674); test: Biochemical JAK2 kinase assay (LanthaScreen)
How it was run: as §1

JAK3 = JAK3 (Homo sapiens (Human), UniProt P52333); test: Biochemical JAK3 kinase assay (LanthaScreen)
How it was run: as §1

Tyk2 = Tyk2 (Homo sapiens (Human), UniProt P29597); test: Biochemical Tyk2 kinase assay (LanthaScreen)
How it was run: as §1

[1] = system: IL-2 stimulated STAT5 phosphorylation in Tall-1 human T cell line (JAK3); test: Cellular JAK3 potency assay: inhibition of IL-2 stimulated pSTAT5 in Tall-1 T cells; type: cell-based
How it was run: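 AlphaLISA SureFire Ultra measures STAT5 Tyr694/699 phosphorylation in lysed Tall-1 human T cells. Cells were exposed to compound for 1 h at 37 °C before a 30 min IL-2 challenge (300 ng/ml final). Values are pIC50 means with standard deviation from signal-versus-concentration curves.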

[2] = selectivity JAK3 over JAK1, difference of pKi
[3] = IL-2 stimulated pSTAT5, Tall-1 T cells

Sequence of Tyk2 (P29597 whole entry): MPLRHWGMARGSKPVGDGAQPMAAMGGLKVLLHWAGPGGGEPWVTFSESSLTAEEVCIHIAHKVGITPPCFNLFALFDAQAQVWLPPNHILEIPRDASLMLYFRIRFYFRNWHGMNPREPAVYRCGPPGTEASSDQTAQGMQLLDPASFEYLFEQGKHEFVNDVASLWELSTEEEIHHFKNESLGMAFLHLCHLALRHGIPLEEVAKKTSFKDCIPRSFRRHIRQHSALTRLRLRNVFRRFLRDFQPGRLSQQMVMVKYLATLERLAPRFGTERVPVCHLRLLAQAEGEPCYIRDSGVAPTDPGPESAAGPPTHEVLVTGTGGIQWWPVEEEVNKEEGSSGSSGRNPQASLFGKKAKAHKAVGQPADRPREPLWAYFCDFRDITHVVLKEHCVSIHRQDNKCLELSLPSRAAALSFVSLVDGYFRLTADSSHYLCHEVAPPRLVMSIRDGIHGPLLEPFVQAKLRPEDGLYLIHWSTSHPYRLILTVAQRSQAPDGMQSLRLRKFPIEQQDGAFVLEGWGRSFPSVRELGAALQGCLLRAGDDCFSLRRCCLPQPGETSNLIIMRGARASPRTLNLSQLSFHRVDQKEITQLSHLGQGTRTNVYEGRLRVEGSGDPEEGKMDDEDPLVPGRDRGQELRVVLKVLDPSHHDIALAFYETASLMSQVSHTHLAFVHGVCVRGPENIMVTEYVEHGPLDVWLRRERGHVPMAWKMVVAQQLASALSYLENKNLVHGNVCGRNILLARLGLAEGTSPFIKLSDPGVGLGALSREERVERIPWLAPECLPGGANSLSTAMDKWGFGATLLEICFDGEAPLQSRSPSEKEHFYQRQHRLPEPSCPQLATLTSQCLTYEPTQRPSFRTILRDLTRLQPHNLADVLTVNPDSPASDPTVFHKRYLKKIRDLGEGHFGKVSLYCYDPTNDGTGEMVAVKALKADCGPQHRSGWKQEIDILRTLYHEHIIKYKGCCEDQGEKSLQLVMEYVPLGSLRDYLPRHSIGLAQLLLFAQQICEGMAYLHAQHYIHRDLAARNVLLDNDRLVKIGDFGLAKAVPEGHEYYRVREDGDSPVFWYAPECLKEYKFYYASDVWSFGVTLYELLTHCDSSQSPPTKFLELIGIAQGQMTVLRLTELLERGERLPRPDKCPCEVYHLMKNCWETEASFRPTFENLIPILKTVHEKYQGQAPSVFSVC
Sequence of JAK1 (P23458 whole entry): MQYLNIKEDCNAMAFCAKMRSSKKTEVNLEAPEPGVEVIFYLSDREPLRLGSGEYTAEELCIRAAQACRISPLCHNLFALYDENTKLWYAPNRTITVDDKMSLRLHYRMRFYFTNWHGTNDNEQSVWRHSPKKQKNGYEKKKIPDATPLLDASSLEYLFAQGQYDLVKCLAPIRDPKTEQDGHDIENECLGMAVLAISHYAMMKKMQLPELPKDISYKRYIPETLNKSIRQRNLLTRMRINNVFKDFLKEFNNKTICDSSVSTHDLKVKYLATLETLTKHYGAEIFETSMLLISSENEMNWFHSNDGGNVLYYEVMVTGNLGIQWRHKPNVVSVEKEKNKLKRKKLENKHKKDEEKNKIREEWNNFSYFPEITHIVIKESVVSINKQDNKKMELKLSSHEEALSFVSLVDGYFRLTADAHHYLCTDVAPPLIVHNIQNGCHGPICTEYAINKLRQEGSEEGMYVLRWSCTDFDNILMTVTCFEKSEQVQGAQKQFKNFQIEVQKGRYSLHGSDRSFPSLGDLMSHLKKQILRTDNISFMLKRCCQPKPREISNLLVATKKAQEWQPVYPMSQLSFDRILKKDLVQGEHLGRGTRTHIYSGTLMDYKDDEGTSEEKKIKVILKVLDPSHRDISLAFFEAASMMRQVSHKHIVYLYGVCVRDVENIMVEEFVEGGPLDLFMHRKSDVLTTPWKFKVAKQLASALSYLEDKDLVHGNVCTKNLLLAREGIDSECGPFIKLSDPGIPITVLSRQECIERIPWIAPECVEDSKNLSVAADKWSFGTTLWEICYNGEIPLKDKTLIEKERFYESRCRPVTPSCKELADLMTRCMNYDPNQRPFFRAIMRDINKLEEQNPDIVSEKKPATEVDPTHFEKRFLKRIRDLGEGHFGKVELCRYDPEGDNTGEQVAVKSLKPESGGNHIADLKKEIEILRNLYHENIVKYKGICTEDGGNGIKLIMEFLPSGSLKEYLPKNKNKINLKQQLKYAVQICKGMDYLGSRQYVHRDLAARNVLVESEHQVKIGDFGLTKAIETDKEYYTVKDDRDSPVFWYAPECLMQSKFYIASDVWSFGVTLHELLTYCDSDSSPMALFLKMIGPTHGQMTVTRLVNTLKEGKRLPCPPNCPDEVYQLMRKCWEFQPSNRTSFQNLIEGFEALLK
Sequence of JAK2 (O60674 whole entry): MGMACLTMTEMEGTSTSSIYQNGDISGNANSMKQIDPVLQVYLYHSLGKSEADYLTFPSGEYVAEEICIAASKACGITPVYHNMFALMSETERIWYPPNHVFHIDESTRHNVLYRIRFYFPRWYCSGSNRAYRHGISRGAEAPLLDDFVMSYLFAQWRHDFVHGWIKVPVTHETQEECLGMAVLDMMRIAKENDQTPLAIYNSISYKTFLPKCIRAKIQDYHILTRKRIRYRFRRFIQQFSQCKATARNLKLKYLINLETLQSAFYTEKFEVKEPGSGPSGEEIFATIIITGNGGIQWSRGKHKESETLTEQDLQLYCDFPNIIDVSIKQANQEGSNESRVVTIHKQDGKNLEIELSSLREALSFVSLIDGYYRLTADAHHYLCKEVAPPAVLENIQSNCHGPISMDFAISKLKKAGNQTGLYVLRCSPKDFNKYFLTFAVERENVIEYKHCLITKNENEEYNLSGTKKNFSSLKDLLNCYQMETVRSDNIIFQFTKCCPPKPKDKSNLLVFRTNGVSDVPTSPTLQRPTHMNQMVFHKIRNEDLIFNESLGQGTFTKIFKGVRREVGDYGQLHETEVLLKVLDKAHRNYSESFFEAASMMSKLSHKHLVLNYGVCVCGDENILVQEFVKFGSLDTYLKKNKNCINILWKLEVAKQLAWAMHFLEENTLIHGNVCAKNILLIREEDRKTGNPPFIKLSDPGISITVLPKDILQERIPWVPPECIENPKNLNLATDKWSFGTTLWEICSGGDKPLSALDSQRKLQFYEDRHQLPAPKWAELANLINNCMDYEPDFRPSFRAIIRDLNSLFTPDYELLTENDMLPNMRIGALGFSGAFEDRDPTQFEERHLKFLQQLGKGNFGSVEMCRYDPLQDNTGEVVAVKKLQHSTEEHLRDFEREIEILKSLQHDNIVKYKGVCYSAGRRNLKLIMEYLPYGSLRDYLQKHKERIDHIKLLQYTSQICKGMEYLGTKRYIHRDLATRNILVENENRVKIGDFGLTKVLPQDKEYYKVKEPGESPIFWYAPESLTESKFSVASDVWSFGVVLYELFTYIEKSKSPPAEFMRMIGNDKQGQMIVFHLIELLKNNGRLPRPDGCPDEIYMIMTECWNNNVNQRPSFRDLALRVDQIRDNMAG
Sequence of JAK3 (P52333 whole entry): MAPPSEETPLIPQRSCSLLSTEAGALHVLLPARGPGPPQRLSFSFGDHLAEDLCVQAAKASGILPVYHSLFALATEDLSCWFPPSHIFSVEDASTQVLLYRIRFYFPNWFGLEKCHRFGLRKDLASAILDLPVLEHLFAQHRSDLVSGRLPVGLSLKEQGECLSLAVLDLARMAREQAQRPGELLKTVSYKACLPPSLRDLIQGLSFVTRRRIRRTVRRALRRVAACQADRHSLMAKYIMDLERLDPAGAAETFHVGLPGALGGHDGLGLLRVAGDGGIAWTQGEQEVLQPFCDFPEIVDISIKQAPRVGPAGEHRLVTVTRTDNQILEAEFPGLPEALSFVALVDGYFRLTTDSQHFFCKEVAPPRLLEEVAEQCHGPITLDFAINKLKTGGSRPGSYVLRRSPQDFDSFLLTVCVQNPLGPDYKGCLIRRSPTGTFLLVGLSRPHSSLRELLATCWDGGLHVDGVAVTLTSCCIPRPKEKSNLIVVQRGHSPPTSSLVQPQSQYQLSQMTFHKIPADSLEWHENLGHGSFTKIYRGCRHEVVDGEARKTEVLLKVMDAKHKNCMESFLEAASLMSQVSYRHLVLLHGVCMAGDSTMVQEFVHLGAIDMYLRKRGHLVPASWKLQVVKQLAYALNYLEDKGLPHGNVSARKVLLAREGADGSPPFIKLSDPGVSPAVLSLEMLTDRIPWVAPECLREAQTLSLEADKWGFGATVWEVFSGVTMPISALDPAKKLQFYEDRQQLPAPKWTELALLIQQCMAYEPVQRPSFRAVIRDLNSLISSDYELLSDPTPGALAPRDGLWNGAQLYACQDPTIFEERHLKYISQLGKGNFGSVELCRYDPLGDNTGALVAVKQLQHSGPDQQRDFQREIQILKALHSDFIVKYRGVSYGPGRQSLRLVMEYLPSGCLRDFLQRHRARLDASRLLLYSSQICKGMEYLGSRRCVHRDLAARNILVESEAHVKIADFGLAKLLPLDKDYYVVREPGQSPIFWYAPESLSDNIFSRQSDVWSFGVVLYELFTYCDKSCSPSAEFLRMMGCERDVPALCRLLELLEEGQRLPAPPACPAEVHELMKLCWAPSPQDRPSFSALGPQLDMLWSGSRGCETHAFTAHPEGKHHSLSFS

## C=CC(=O)N1CCN(C(C)(C)Cn2c(=O)ccc3cnc(Nc4ccc(N5CCN(C(C)=O)CC5)cc4)nc32)CC1 [Example 200]
JAK1
  JAK 1 (pKi): E (E represents a pKi value of 7 or below (Ki of 100 nM or above))
JAK2
  JAK 2 (pKi): E (E represents a pKi value of 7 or below (Ki of 100 nM or above))
JAK3
  JAK 3 (pKi): C (C represents a pKi value between 8 and 9 (Ki between 10 nM and 1 nM))
JAK3; [2]
  JAK3 (pKi)-JAK1 (pKi): B (B represents a value of 2.5 to 3)
Tyk2
  Tyk 2 (pKi): E (E represents a pKi value of 7 or below (Ki of 100 nM or above))
[1]; [3]
  Tall-1 (pIC50): C (C represents a pIC50 value between 6 and 6.7 (IC50 between 1 μM and 200 nM))

## C=CC(=O)N1CC(CCn2c(=O)ccc3cnc(Nc4ccc(N5CCN(C)[C@@H](C)C5)cc4)nc32)C1 [Example 165]
JAK1
  JAK 1 (pKi): E (E represents a pKi value of 7 or below (Ki of 100 nM or above))
JAK2
  JAK 2 (pKi): E (E represents a pKi value of 7 or below (Ki of 100 nM or above))
JAK3
  JAK 3 (pKi): A (A represents a pKi value≥10 (Ki≤0.1 nM))
JAK3; [2]
  JAK3 (pKi)-JAK1 (pKi): A (A represents a value of 3 or above)
Tyk2
  Tyk 2 (pKi): E (E represents a pKi value of 7 or below (Ki of 100 nM or above))
[1]; [3]
  Tall-1 (pIC50): A (A represents a pIC50 value≥7.5 (IC50≤32 nM))

## C=CC(=O)N1CCN(CCn2c(=O)ccc3cnc(Nc4ccc(N5CCN(C(=O)C(C)C)CC5)cc4)nc32)CC1 [Example 213]
JAK1
  JAK 1 (pKi): E (E represents a pKi value of 7 or below (Ki of 100 nM or above))
JAK2
  JAK 2 (pKi): E (E represents a pKi value of 7 or below (Ki of 100 nM or above))
JAK3
  JAK 3 (pKi): A (A represents a pKi value≥10 (Ki≤0.1 nM))
JAK3; [2]
  JAK3 (pKi)-JAK1 (pKi): A (A represents a value of 3 or above)
Tyk2
  Tyk 2 (pKi): E (E represents a pKi value of 7 or below (Ki of 100 nM or above))
[1]; [3]
  Tall-1 (pIC50): B (B represents a pC50 value between 6.7 (included) and 7.5 (IC50 between 200 nM and 32 nM))

## C=CC(=O)N1CC(CCn2c(=O)ccc3cnc(Nc4cnn(CC(C)(C)O)c4)nc32)C1 [Example 57]
JAK1
  JAK 1 (pKi): E (E represents a pKi value of 7 or below (Ki of 100 nM or above))
JAK2
  JAK 2 (pKi): E (E represents a pKi value of 7 or below (Ki of 100 nM or above))
JAK3
  JAK 3 (pKi): B (B represents pKi value between 9 and 10 (Ki between 1 nM and 0.1 nM))
JAK3; [2]
  JAK3 (pKi)-JAK1 (pKi): A (A represents a value of 3 or above)
Tyk2
  Tyk 2 (pKi): E (E represents a pKi value of 7 or below (Ki of 100 nM or above))
[1]; [3]
  Tall-1 (pIC50): C (C represents a pIC50 value between 6 and 6.7 (IC50 between 1 μM and 200 nM))

## C=CC(=O)N1CC(CCn2c(=O)ccc3cnc(Nc4cccc(N5CCN(S(=O)(=O)C6COC6)CC5)c4)nc32)C1 [Example 129]
JAK1
  JAK 1 (pKi): E (E represents a pKi value of 7 or below (Ki of 100 nM or above))
JAK2
  JAK 2 (pKi): E (E represents a pKi value of 7 or below (Ki of 100 nM or above))
JAK3
  JAK 3 (pKi): A (A represents a pKi value≥10 (Ki≤0.1 nM))
JAK3; [2]
  JAK3 (pKi)-JAK1 (pKi): A (A represents a value of 3 or above)
Tyk2
  Tyk 2 (pKi): E (E represents a pKi value of 7 or below (Ki of 100 nM or above))
[1]; [3]
  Tall-1 (pIC50): B (B represents a pC50 value between 6.7 (included) and 7.5 (IC50 between 200 nM and 32 nM))

## C=CC(=O)N1CCN(CCn2c(=O)ccc3cnc(Nc4ccc(N5CCN(C)CC5)c(Cl)c4)nc32)CC1 [Example 154]
JAK1
  JAK 1 (pKi): E (E represents a pKi value of 7 or below (Ki of 100 nM or above))
JAK2
  JAK 2 (pKi): E (E represents a pKi value of 7 or below (Ki of 100 nM or above))
JAK3
  JAK 3 (pKi): B (B represents pKi value between 9 and 10 (Ki between 1 nM and 0.1 nM))
JAK3; [2]
  JAK3 (pKi)-JAK1 (pKi): A (A represents a value of 3 or above)
Tyk2
  Tyk 2 (pKi): E (E represents a pKi value of 7 or below (Ki of 100 nM or above))
[1]; [3]
  Tall-1 (pIC50): B (B represents a pC50 value between 6.7 (included) and 7.5 (IC50 between 200 nM and 32 nM))

## C=CC(=O)N1C[C@H](C)N(CCn2c(=O)ccc3cnc(Nc4cnn(C)c4)nc32)C[C@@H]1C [Example 121]
JAK1
  JAK 1 (pKi): E (E represents a pKi value of 7 or below (Ki of 100 nM or above))
JAK2
  JAK 2 (pKi): E (E represents a pKi value of 7 or below (Ki of 100 nM or above))
JAK3
  JAK 3 (pKi): B (B represents pKi value between 9 and 10 (Ki between 1 nM and 0.1 nM))
JAK3; [2]
  JAK3 (pKi)-JAK1 (pKi): B (B represents a value of 2.5 to 3)
Tyk2
  Tyk 2 (pKi): E (E represents a pKi value of 7 or below (Ki of 100 nM or above))
[1]; [3]
  Tall-1 (pIC50): C (C represents a pIC50 value between 6 and 6.7 (IC50 between 1 μM and 200 nM))

## C=CC(=O)N1CCN(CCn2c(=O)ccc3cnc(Nc4cnn(CCOCC)c4)nc32)[C@@H](CC)C1 [Example 221]
JAK1
  JAK 1 (pKi): E (E represents a pKi value of 7 or below (Ki of 100 nM or above))
JAK2
  JAK 2 (pKi): E (E represents a pKi value of 7 or below (Ki of 100 nM or above))
JAK3
  JAK 3 (pKi): B (B represents pKi value between 9 and 10 (Ki between 1 nM and 0.1 nM))
JAK3; [2]
  JAK3 (pKi)-JAK1 (pKi): A (A represents a value of 3 or above)
Tyk2
  Tyk 2 (pKi): E (E represents a pKi value of 7 or below (Ki of 100 nM or above))
[1]; [3]
  Tall-1 (pIC50): B (B represents a pC50 value between 6.7 (included) and 7.5 (IC50 between 200 nM and 32 nM))

## C=CC(=O)N1CC(CCn2c(=O)ccc3cnc(Nc4ccc(N5CCN(C)C(C)(C)C5)cc4)nc32)C1 [Example 240]
JAK1
  JAK 1 (pKi): E (E represents a pKi value of 7 or below (Ki of 100 nM or above))
JAK2
  JAK 2 (pKi): E (E represents a pKi value of 7 or below (Ki of 100 nM or above))
JAK3
  JAK 3 (pKi): A (A represents a pKi value≥10 (Ki≤0.1 nM))
JAK3; selectivity, difference of pKi values
  JAK3 (pKi)-JAK1 (pKi): A (A represents a value of 3 or above)
Tyk2
  Tyk 2 (pKi): E (E represents a pKi value of 7 or below (Ki of 100 nM or above))
[1]; IL-2 stimulated pSTAT5 in Tall-1 T cells
  Tall-1 (pIC50): A (A represents a pIC50 value≥7.5 (IC50≤32 nM))

## C=CC(=O)N1CC(CCn2c(=O)ccc3cnc(Nc4ccc5[nH]c(=O)oc5c4)nc32)C1 [Example 59]
JAK1
  JAK 1 (pKi): E (E represents a pKi value of 7 or below (Ki of 100 nM or above))
JAK2
  JAK 2 (pKi): E (E represents a pKi value of 7 or below (Ki of 100 nM or above))
JAK3
  JAK 3 (pKi): B (B represents pKi value between 9 and 10 (Ki between 1 nM and 0.1 nM))
JAK3; [2]
  JAK3 (pKi)-JAK1 (pKi): A (A represents a value of 3 or above)
Tyk2
  Tyk 2 (pKi): E (E represents a pKi value of 7 or below (Ki of 100 nM or above))
[1]; [3]
  Tall-1 (pIC50): C (C represents a pIC50 value between 6 and 6.7 (IC50 between 1 μM and 200 nM))

## C=CC(=O)N1CC(CCn2c(=O)ccc3cnc(Nc4cccc(N5CCCCC5)c4)nc32)C1 [Example 68]
JAK1
  JAK 1 (pKi): E (E represents a pKi value of 7 or below (Ki of 100 nM or above))
JAK2
  JAK 2 (pKi): E (E represents a pKi value of 7 or below (Ki of 100 nM or above))
JAK3
  JAK 3 (pKi): B (B represents pKi value between 9 and 10 (Ki between 1 nM and 0.1 nM))
JAK3; [2]
  JAK3 (pKi)-JAK1 (pKi): A (A represents a value of 3 or above)
Tyk2
  Tyk 2 (pKi): E (E represents a pKi value of 7 or below (Ki of 100 nM or above))
[1]; [3]
  Tall-1 (pIC50): C (C represents a pIC50 value between 6 and 6.7 (IC50 between 1 μM and 200 nM))

## C=CC(=O)N1CC(CCn2c(=O)ccc3cnc(Nc4ccc(N5CCN(C(C)C)CC5)cc4)nc32)C1 [Example 120]
JAK1
  JAK 1 (pKi): E (E represents a pKi value of 7 or below (Ki of 100 nM or above))
JAK2
  JAK 2 (pKi): E (E represents a pKi value of 7 or below (Ki of 100 nM or above))
JAK3
  JAK 3 (pKi): B (B represents pKi value between 9 and 10 (Ki between 1 nM and 0.1 nM))
JAK3; [2]
  JAK3 (pKi)-JAK1 (pKi): A (A represents a value of 3 or above)
Tyk2
  Tyk 2 (pKi): E (E represents a pKi value of 7 or below (Ki of 100 nM or above))
[1]; [3]
  Tall-1 (pIC50): A (A represents a pIC50 value≥7.5 (IC50≤32 nM))
